From US20260124191A1, “HISTONE DEACETYLASE INHIBITOR AND USES THEREOF” (NANJING HONGSHUN PHARMACEUTICAL TECHNOLOGY CO., LTD, priority 2023, published 2026)

Assays:
HDAC = HDAC inhibitory activity assay (FRET); assay type: biochemical; details: for IC50: HDAC, FRET, read-out: Half-maximal inhibitory concentration (IC50 ± SD); for Inhibition rate: test concentration 100 nM, relative to DMSO control
Description: The HDAC inhibitory activity of the synthesized compounds was determined by fluorescence resonance energy transfer (FRET), and then compared with that of the positive control to screen out compounds with better activity. HDAC was obtained by purification or purchased directly.
The method was as follows.
An enzyme was added to reaction wells, a reaction buffer was added to control wells, a sample dissolved in DMSO was added to the reaction wells, and the wells were incubated using a contactless nanoflow sonic pipetting system (Ech-550; nanoflow). A fluorescent substrate was added to each reaction well and then rotated and shaken. The wells were incubated for 1-2 h at 30° C. under a sealed condition. A TMP26-containing chromogenic agent was added to terminate the reaction and produce fluorescence. The fluorescence intensity was detected using En Vision multi-label microplate detector (Perkin Elmer) (excitation light: 490 nm, emitted light: 520 nm). After the stabilization of color development, the endpoint value was read. The percentage (relative to the DMSO control group) inhibition rate was calculated using the software GraphPad Prism 4.

[1] = tested on: human breast cancer cells MDA-MB-231; experiment: In vitro anti-tumor activity, MTT method; assay type: cell-based; details: MDA-MB-231, MTT, 96-hour treatment, read-out: Antiproliferative Activity (IC50 ± SD, μM) MDA-MB-231
Description: (§1) The inhibitory effects of the compounds against human non-small cell lung cancer cell lines A549, NCI-H1650, human small cell lung cancer cell lines H446, human prostate cancer cells DU145, PC-3, LNCAP, human colon cancer cells lines HCT116, human breast cancer cells MDA-MB-231, and MCF7 tumor cell lines were determined using the MTT method.
(§2) The method was as follows. The cells in the exponential growth phase were collected to count living cells. The concentration of the cell suspension was adjusted using the corresponding medium of each group of cells. The cell suspension was added to the 96-well culture plate at 100 μL per cell, and the plate was placed in a 5% CO2 incubator at 37° C. and incubated for 24 h. Each test compound was dissolved in DMSO to prepare a stock solution with a corresponding concentration. Then, each stock solution was diluted 500-fold with the medium to prepare 4 replicate wells. 100 μL of the corresponding 500-fold solution was added to each well per cell line, with the final DMSO concentration of 0.1%. […] The half-maximal (relative to the DMSO control group) inhibition rate was calculated using the software GraphPad Prism 4.

[2] = tested on: human non-small cell lung cancer cell line NCI-H1650; experiment: In vitro anti-tumor activity, MTT method; assay type: cell-based; details: 96-hour treatment, read-out: Antiproliferative Activity (IC50 ± SD, μM) H1650
Description: as §1, §2

[3] = tested on: human prostate cancer cells LNCAP; experiment: In vitro anti-tumor activity, MTT method; assay type: cell-based; details: 96-hour treatment, read-out: Antiproliferative Activity (IC50 ± SD, μM) LNCAP
Description: as §1, §2

[4] = tested on: human non-small cell lung cancer cell line A549; experiment: In vitro anti-tumor activity, MTT method; assay type: cell-based; details: Homo sapiens, A549, 96 h, 96-hour treatment
Description: as §1, §2

[5] = tested on: human prostate cancer cells DU145; experiment: In vitro anti-tumor activity, MTT method; assay type: cell-based; details: Homo sapiens, DU-145, 96 h, 96-hour treatment
Description: as §1, §2

[6] = tested on: human colon cancer cell line HCT116; experiment: In vitro anti-tumor activity, MTT method; assay type: cell-based; details: HCT-116, 96-hour treatment, read-out: Antiproliferative Activity (IC50 ± SD, μM) HCT116
Description: as §1, §2

[7] = tested on: human small cell lung cancer cell line H446; experiment: In vitro anti-tumor activity, MTT method; assay type: cell-based; details: NCI-H446, 96-hour treatment, read-out: Antiproliferative Activity (IC50 ± SD, μM) H446
Description: as §1, §2

[8] = tested on: human breast cancer cells MCF7; experiment: In vitro anti-tumor activity, MTT method; assay type: cell-based; details: Homo sapiens, MCF7, 96 h, MCF-7, MTT, 96-hour treatment
Description: as §1, §2

[9] = tested on: human prostate cancer cells PC-3; experiment: In vitro anti-tumor activity, MTT method; assay type: cell-based; details: Homo sapiens, 96 h, PC-3, MTT, 96-hour treatment
Description: as §1, §2

HT29 = experiment: In vitro anti-tumor activity, MTT method; assay type: cell-based; details: Homo sapiens, HT-29, 96-hour treatment, read-out: Antiproliferative Activity (IC50 ± SD, μM) HT29

Compound	IC50 (HDAC)	IC50 [1]	IC50 [2]	IC50 [3]	IC50 [4]	IC50 [5]	IC50 [6]	IC50 [7]	IC50 [8]	IC50 [9]	IC50 (HT29)	Inhibition rate (HDAC)
O=C(CCCCCCN1C(=O)C/C(=C\c2ccccc2)C1=O)NO [Example I-4]	0.0129 ± 0.0001 µM	0.67 ± 0.1 µM	6.12 ± 0.88 µM	1.63 ± 0.24 µM	1.32 ± 0.17 µM	0.5 ± 0.07 µM	0.75 ± 0.08 µM	0.57 ± 0.03 µM	1.43 ± 0.06 µM	0.82 ± 0.07 µM	1.76 ± 0.25 µM	
O=C(CCCCCCN1C(=O)C/C(=C\c2ccc3ccccc3c2)C1=O)NO [Example I-22, (E)-7-(3-(2-methylenenaphthyl)-2,5-diketopyrrolidinyl)-N-hydroxyheptamide]		0.98 ± 0.11 µM	4.42 ± 0.72 µM	1.48 ± 0.2 µM	1.8 ± 0.14 µM	0.34 ± 0.03 µM	0.91 ± 0.11 µM	0.7 ± 0.1 µM	0.98 ± 0.02 µM	1.29 ± 0.14 µM	1.69 ± 0.1 µM	89.4% ± 0.9%
O=C(CCCCCCN1C(=O)C/C(=C\c2ccccc2Cl)C1=O)NO [Example I-24, (E)-7-(3-(2-chlorobenzal)-2,5-diketopyrrolidinyl)-N-hydroxyheptamide]	0.0193 ± 0.00011 µM	0.99 ± 0.11 µM	6.6 ± 0.57 µM	1.51 ± 0.22 µM	1.33 ± 0.23 µM	0.48 ± 0.06 µM	0.86 ± 0.08 µM	0.77 ± 0.1 µM	0.58 ± 0.03 µM	1.44 ± 0.1 µM	1.22 ± 0.1 µM	
O=C(CCCCCCN1C(=O)C/C(=C\c2cccc(Cl)c2)C1=O)NO [Example I-25, (E)-7-(3-(3-chlorobenzal)-2,5-diketopyrrolidinyl)-N-hydroxyheptamide]		2.05 ± 0.2 µM	7.3 ± 0.56 µM	1.95 ± 0.21 µM	1.12 ± 0.2 µM	0.38 ± 0.04 µM	0.81 ± 0.06 µM	0.78 ± 0.04 µM	1.05 ± 0.24 µM	1.7 ± 0.08 µM	1.3 ± 0.1 µM	91.2% ± 0.7%
COc1ccccc1/C=C1\CC(=O)N(CCCCCCC(=O)NO)C1=O [Example I-31, (E)-7-(3-(2-methoxybenzal)-2,5-diketopyrrolidinyl)-N-hydroxyheptamide]	0.0126 ± 0.00015 µM	0.31 ± 0.05 µM	3.56 ± 0.1 µM	0.63 ± 0.12 µM	1.39 ± 0.06 µM	0.16 ± 0.04 µM	0.47 ± 0.01 µM	0.65 ± 0.05 µM	0.35 ± 0.02 µM	0.82 ± 0.09 µM	1.05 ± 0.1 µM	
COc1cc(/C=C2\CC(=O)N(CCCCCCC(=O)NO)C2=O)cc(OC)c1OC [Example I-35, (E)-7-(3-(3,4,5-trimethoxybenzal)-2,5-diketopyrrolidinyl)-N-hydroxyheptamide]					3.63 ± 0.65 µM	1.03 ± 0.14 µM			1.27 ± 0.13 µM	1.71 ± 0.17 µM		82.5% ± 3.5%
COc1cc(/C=C2\CC(=O)N(CCCCCCC(=O)NO)C2=O)cc(OC)c1O [Example I-36, (E)-7-(3-(4-hydroxy-3,5-dimethoxybenzal)-2,5-diketopyrrolidinyl)-N-hydroxyheptamide]					> 10 µM	3.88 ± 0.04 µM			1.88 ± 0.14 µM	1.73 ± 0.2 µM		74.8% ± 2.8%
O=C(CCCCCCN1C(=O)C/C(=C\c2ccccc2O)C1=O)NO [Example I-37, (E)-7-(3-(2-hydroxybenzal)-2,5-diketopyrrolidinyl)-N-hydroxyheptamide]					4.34 ± 0.69 µM	1.72 ± 0.12 µM			0.8 ± 0.15 µM	1.93 ± 0.23 µM		90.6% ± 0.9%
CCOc1ccccc1/C=C1\CC(=O)N(CCCCCCC(=O)NO)C1=O [Example I-38, (E)-7-(3-(2-ethoxybenzal)-2,5-diketopyrrolidinyl)-N-hydroxyheptamide]	0.0167 ± 0.00021 µM				1.78 ± 0.2 µM	0.34 ± 0.04 µM			0.51 ± 0.07 µM	0.89 ± 0.05 µM		
COc1ccc(Br)cc1/C=C1\CC(=O)N(CCCCCCC(=O)NO)C1=O [Example I-39, (E)-7-(3-(5-bromo-2-methoxybenzal)-2,5-diketopyrrolidinyl)-N-hydroxyheptamide]					2.21 ± 0.27 µM	0.46 ± 0.04 µM			0.68 ± 0.09 µM	1.13 ± 0.07 µM		88.1% ± 1.1%
COc1cc(Br)ccc1/C=C1\CC(=O)N(CCCCCCC(=O)NO)C1=O [Example I-40, (E)-7-(3-(4-bromo-2-methoxybenzal)-2,5-diketopyrrolidinyl)-N-hydroxyheptamide]	0.0055 ± 3e-05 µM				1.49 ± 0.09 µM	0.25 ± 0.04 µM			0.32 ± 0.02 µM	0.67 ± 0.1 µM		
O=C(NO)c1ccc(CN2C(=O)C/C(=C\c3ccccc3)C2=O)cc1 [Example I-41, (E)-4-((3-benzal-2,5-diketopyrrolidinyl)methyl)-N-hydroxybenzamide]					3.09 ± 0.41 µM	2.54 ± 0.41 µM			6.97 ± 0.83 µM	7.82 ± 0.9 µM		77.1% ± 1.8%
